Experimental data: patent US20110070326A1, “OREGANO EXTRACT AND ITS COMPONENTS FOR ENHANCING VIGILANCE” (DSM IP ASSETS B.V., priority 2006, published 2011)
Where “and” joins values, the source holds several entries; their conditions need not be identical. Equal entries are not always repeated.

Experiments:
mouse = test: Light Dark Box Test in the mouse; assay type: in vivo; conditions: 16 mg/kg i.p. −30 min; for NUMBER OF CROSSINGS mean ± s.e.m. / TIME SPENT IN LIGHT COMPARTMENT (s) mean ± s.e.m.: 3-minute test, 15 mice
From the text: The method, which detects anxiolytic activity, follows that described by Crawley, 1981 Pharmacol. Biochem. Behav., 15: 695-699. Anxiolytics increase the time spent in the light compartment.
Animals were placed into the light compartment of a 2-compartment box with one half light and open (25×27×27 cm) and the other half dark and closed (20×27×27 cm). The time spent in each compartment, as well as the number of times the animal crosses from one side to the other, is scored during a 3-minute test. 15 mice were studied per group. The test was performed blind.
Oregano extract 1 was evaluated at 3 doses (10, 30 and 60 mg/kg), administered i.p. 30 minutes before the test, and compared with a vehicle control group. Oregano extract 1 was dissolved in a saline solution containing 3% (v/v) DMSO and 3% (v/v) Tween® 80 (“vehicle”). The control group was administered vehicle, venlafaxine (16 mg/kg i.p) was used as comparison substance and clobazam (16 mg/kg i.p) was used as reference substance, all being administered i.p., 30 minutes prior to the test.

[1] = tested on: hippocampal serotonin (5HT) levels; test: Hippocampal serotonin levels by in vivo microdialysis; design: species or system rat; conditions: cumulative 5HT in dosing period, n = 5-6 rats
Method: Male Sprague-Dawley rats (250-320 g) were housed in groups of 4-5 under conditions of controlled temperature (21±2° C.) and humidity (55±10%) with free access to food and water (lights on 07.00-19.00). Rats were anaesthetised using chloral hydrate (400 mg/kg i.p.) and a single microdialysis probe (BASi type MD2200, 2 mm membrane, 30,000 dalton cut-off) implanted in the dorsal hippocampus using a stereotaxic frame at the following coordinates (rostro-caudal—4.5 mm; media-lateral—2.5 mm; dorso-ventral—4.5 mm from bregma and dura surface according to Paxinos & Watson 6) and fixed in position with dental cement. Body temperature was maintained at 36° C. using a heating pad and monitored via a digital rectal thermometer. The microdialysis probe was perfused with artificial cerebrospinal fluid (aCSF) at 1 μl/min and extracellular monoamine levels determined by collection of perfusate samples every 15 min and assayed using high-performance liquid chromatography (HPLC) with electrochemical detection.
The HPLC mobile phase (0.5 mM EDTA, 0.1M monochloroacetic acid pH 3.1, 0.15 g/L sodium octyl sulphate, 5% acetonitrile, 0.7% tetrahydrofuran) was pumped through the system at 70 μl/min. Monoamines were separated using a reverse-phase 1×100 mm ODS 3 mm microbore column with 5 μl injection loop and detected using a Epsilon electrochemical detector (BAST) with a glassy carbon electrode set at +650 mV versus Ag/AgCl reference electrode. Dialysate peaks were identified by comparing peak elution times with reference standards and quantified according to measurement of peak area using linear regression analysis. The detection limits for 5HT and SHIAA were defined as the sample amount producing a peak area twice that of the background noise per unit time and were approximately 0.1 fmol/sample in both cases. […]
For routine assay, two rats were prepared of which one was used to test the oregano extract and the other a control (vehicle) sample. […] Data from replicate studies for each compound are therefore expressed as % Basal level, as is normal practice for microdialysis studies. […]

mice [2] = test: Marble burying test; assay type: in vivo, mouse; conditions: for NUMBER OF MARBLES COVERED BY SAWDUST Mean ± s.e.m.: 25 marbles, 30-minute test, 15 mice
Method: The method applied here follows that described by Broekkamp et al. 1986, supra. Mice (n=15 per treatment group) were individually placed in transparent plastic cages (33×21×18 cm) with 5 cm of sawdust on the floor and 25 marbles (diameter 1 cm) grouped in the centre of the cage. A second, up-tamed, cage served as a lid. The number of marbles covered by sawdust (by at least two-thirds) was counted at the end of the 30-minute test period. Tests were performed by investigators blind to the drug treatment protocol.
Prior to testing, all test cages and marbles were “impregnated” by leaving 10 naive mice in each cage for 15 minutes.
Oregano extract 1 was evaluated at 10, 30 and 60 mg/kg, administered i.p. 30 minutes before the test, and compared with a vehicle control group. Oregano extract 1 was dissolved in a saline solution containing 3% (v/v) DMSO and 3% (v/v) Tween® 80 “vehicle”. The control group were administered vehicle in the same manner, while fluoxetine (32 mg/kg), administered under the same experimental conditions, was used as a reference substance. Data were analyzed by comparing treated groups with vehicle control using unpaired Student's t-tests.

mice [3] = test: Porsolt's Forced Swim Test (Behavioral Despair Test), i.p.; assay type: in vivo, mouse; conditions: 16 mg/kg i.p., −30 min, 15 mice
Method: The test, which detects antidepressant activity, was carried out as described by Porsolt et al supra. Mice which are forced to swim in a situation from which they cannot escape rapidly become immobile. Antidepressants decrease the duration of immobility.
Mice were individually placed in cylinders (Height=24 cm, Diameter=13 cm) containing 10 cm water (22° C.) from which they could not escape. The mice were placed in the water for 6 minutes and the duration of immobility during the last 4 minutes was measured.
15 mice were studied per each of the four groups.
Oregano extract 1 was evaluated at 3 doses (10, 30 and 60 mg/kg), administered i.p. 30 minutes before the test, and compared with a control group, administered vehicle in the same manner. The thus administered […] was dissolved in vehicle (saline solution containing 3% (v/v) DMSO and 3% (v/v) Tween® 80). Venlafaxine (16 mg/kg, i.p.), as comparison substance, and imipramine (32 mg/kg, i.p.), as reference compound, were administered under the same experimental conditions.
Data were analyzed by comparing the treated groups with the control group using unpaired Student's t tests and are presented in Table 3.

[4] = Plasma level of free and total carvacrol after oral oregano extract 4 (LC/MS/MS); assay type: in vivo, rat; conditions: individual animals
Method: 4 male and 4 female rats received a single dose of 800 mg of oregano extract 4 per kg body weight by oral gavage, respectively. The application solution was prepared in corn oil at a concentration of 200 mg extract per gram formulation.
The sample analysis was performed with a liquid chromatography—tandem mass spectrometry (LC/MS/MS) system, using a column switching system for online cleaning and desalting of the samples.
After addition of internal standard (D2-thymol) and protein precipitation (in case of “free” analyte) or pre-digesting by β-glucuronidase followed by protein precipitation (in case of “total” analyte), the samples were injected on a Waters XTerra™ MS C18 guard-column used as purification column, then transferred onto a Waters XTerra™ C18 column. Detection was performed using tandem mass spectrometry in MRM mode.
Calibration and quality control samples were prepared in 5% Albumin bovine serum solution and human plasma.

SMILES: CN1C(=O)CC(=O)N(c2ccccc2)c2cc(Cl)ccc21 [Clobazam]
- NUMBER OF CROSSINGS % change from control (mouse): +68%
- TIME SPENT IN LIGHT COMPARTMENT % change from control (mouse): +114%
- NUMBER OF CROSSINGS mean ± s.e.m. (mouse): 7.9 ± 0.9
- TIME SPENT IN LIGHT COMPARTMENT (s) mean ± s.e.m. (mouse): 118.4 ± 3.4 s

SMILES: CNCCC(Oc1ccc(C(F)(F)F)cc1)c1ccccc1 (stereo not drawn) [Fluoxetine]
- 5-HT LEVEL (% basal) Mean ± s.e.m. ([1]; 3 mg/kg i.p., injection 150 min post-surgery): 85 ± 4 % basal
- 5-HT LEVEL (% basal) Mean ± s.e.m. ([1]; 10 mg/kg i.p., injection 210 min post-surgery): 131 ± 9 % basal
- 5-HT LEVEL (% basal) Mean ± s.e.m. ([1]; 30 mg/kg i.p., injection 270 min post-surgery): 160 ± 7 % basal
- NUMBER OF MARBLES COVERED BY SAWDUST % change from control (mice [2]; 32 mg/kg i.p., −30 min): −93%
- NUMBER OF MARBLES COVERED BY SAWDUST Mean ± s.e.m. (mice [2]; 32 mg/kg i.p., −30 min): 1.4 ± 1.0

SMILES: COc1ccc(C(CN(C)C)C2(O)CCCCC2)cc1 (stereo not drawn) [Venlafaxine]
- NUMBER OF MARBLES COVERED BY SAWDUST % change from control (mice [2]; 16 mg/kg i.p. −30 min): −98%
- NUMBER OF MARBLES COVERED BY SAWDUST Mean ± s.e.m. (mice [2]; 16 mg/kg i.p., −30 min): 0.5 ± 0.3
- NUMBER OF MARBLES COVERED BY SAWDUST % change from control (mice [2]; 16 mg/kg i.p., −30 min, listed as venlafaxine): −98%
- NUMBER OF CROSSINGS % change from control (mouse): −6%
- TIME SPENT IN LIGHT COMPARTMENT % change from control (mouse): 0%
- NUMBER OF CROSSINGS mean ± s.e.m. (mouse): 4.4 ± 0.9
- TIME SPENT IN LIGHT COMPARTMENT (s) mean ± s.e.m. (mouse): 55.2 ± 9.3 s
- DURATION OF IMMOBILITY % change from control (mice [3]): −51%
- DURATION OF IMMOBILITY (s) Mean ± s.e.m. (mice [3]): 80.1 ± 11.1 s
- DURATION OF IMMOBILITY % change from control (mice [3]; listed as venlafaxine): −51%

SMILES: Cc1ccc(C(C)C)cc1O [Carvacrol]
- Free Carvacrol (ng/mL) in plasma ([4]; female rats, 0.5 h after single 800 mg/kg oregano extract 4 by oral gavage in corn oil): 5120 ng/mL and 4090 ng/mL and 50100 ng/mL and 30.9 ng/mL
- Free Carvacrol (ng/mL) in plasma ([4]; female rats, 1 h after single 800 mg/kg oregano extract 4 by oral gavage in corn oil): 6050 ng/mL and 3610 ng/mL and 192 ng/mL
- Free Carvacrol (ng/mL) in plasma ([4]; female rats, 2 h after single 800 mg/kg oregano extract 4 by oral gavage in corn oil): 840 ng/mL and 1360 ng/mL and 64.3 ng/mL
- Free Carvacrol (ng/mL) in plasma ([4]; female rats, 3 h after single 800 mg/kg oregano extract 4 by oral gavage in corn oil): 228 ng/mL and 174 ng/mL
- Free Carvacrol (ng/mL) in plasma ([4]; female rats, 4 h after single 800 mg/kg oregano extract 4 by oral gavage in corn oil): 246 ng/mL and 102 ng/mL and 50.3 ng/mL
- Free Carvacrol (ng/mL) in plasma ([4]; female rats, 6 h after single 800 mg/kg oregano extract 4 by oral gavage in corn oil): 135 ng/mL and 91.9 ng/mL and 48.3 ng/mL
- Free Carvacrol (ng/mL) in plasma ([4]; female rats, 8 h after single 800 mg/kg oregano extract 4 by oral gavage in corn oil): 159 ng/mL and 1630 ng/mL and <LOQ = 10.0 ng/mL
- Free Carvacrol (ng/mL) in plasma ([4]; female rats, 24 h after single 800 mg/kg oregano extract 4 by oral gavage in corn oil): 127 ng/mL and 8.91 ng/mL and <LOQ = 10.0 ng/mL
- concentration at 3 h ([4]; female, rat, plasma, po, 800 mg/kg, Free Carvacrol (ng/mL) in plasma, female rats, 3 h after single 800 mg/kg oregano extract 4 by oral gavage in corn oil): 128 ng/mL
- Free Carvacrol (ng/mL) in plasma ([4]; male rats, 0.5 h after single 800 mg/kg oregano extract 4 by oral gavage in corn oil): 1530 ng/mL and 103 ng/mL and 55.9 ng/mL and 1320 ng/mL
- Free Carvacrol (ng/mL) in plasma ([4]; male rats, 1 h after single 800 mg/kg oregano extract 4 by oral gavage in corn oil): 1150 ng/mL and 1820 ng/mL
- Free Carvacrol (ng/mL) in plasma ([4]; male rats, 2 h after single 800 mg/kg oregano extract 4 by oral gavage in corn oil): 166 ng/mL and 584 ng/mL and 199 ng/mL
- Free Carvacrol (ng/mL) in plasma ([4]; male rats, 3 h after single 800 mg/kg oregano extract 4 by oral gavage in corn oil): 51.5 ng/mL and 58.4 ng/mL and 1580 ng/mL
- Free Carvacrol (ng/mL) in plasma ([4]; male rats, 4 h after single 800 mg/kg oregano extract 4 by oral gavage in corn oil): 30.4 ng/mL and 40 ng/mL and 316 ng/mL
- Free Carvacrol (ng/mL) in plasma ([4]; male rats, 6 h after single 800 mg/kg oregano extract 4 by oral gavage in corn oil): 83.4 ng/mL and 980 ng/mL and 100 ng/mL
- Free Carvacrol (ng/mL) in plasma ([4]; male rats, 8 h after single 800 mg/kg oregano extract 4 by oral gavage in corn oil): 156 ng/mL and 140 ng/mL
- Free Carvacrol (ng/mL) in plasma ([4]; male rats, 24 h after single 800 mg/kg oregano extract 4 by oral gavage in corn oil): <LOQ = 10.0 ng/mL
- concentration at 1 h ([4]; male, rat, plasma, po, 800 mg/kg, Free Carvacrol (ng/mL) in plasma, male rats, 1 h after single 800 mg/kg oregano extract 4 by oral gavage in corn oil): 1790 ng/mL
- concentration at 8 h ([4]; male, rat, plasma, po, 800 mg/kg, Free Carvacrol (ng/mL) in plasma, male rats, 8 h after single 800 mg/kg oregano extract 4 by oral gavage in corn oil): 185 ng/mL
- concentration at 24 h ([4]; male, rat, plasma, po, 800 mg/kg, Free Carvacrol (ng/mL) in plasma, male rats, 24 h after single 800 mg/kg oregano extract 4 by oral gavage in corn oil): 68.1 ng/mL
